27 compounds from patent US12673961B2 (Agios Pharmaceuticals, Inc., priority 2022, dated 2026) can be followed below.

What is called AC50 is the concentration at which the activity in the assay is half-maximal.

For the first test, the target named is T1, human PAH with the R408W mutation (Homo sapiens, UniProt P00439, R408W).
T1 construct: expressed in transfected cells
T1 sequence (P00439 1-452 R408W): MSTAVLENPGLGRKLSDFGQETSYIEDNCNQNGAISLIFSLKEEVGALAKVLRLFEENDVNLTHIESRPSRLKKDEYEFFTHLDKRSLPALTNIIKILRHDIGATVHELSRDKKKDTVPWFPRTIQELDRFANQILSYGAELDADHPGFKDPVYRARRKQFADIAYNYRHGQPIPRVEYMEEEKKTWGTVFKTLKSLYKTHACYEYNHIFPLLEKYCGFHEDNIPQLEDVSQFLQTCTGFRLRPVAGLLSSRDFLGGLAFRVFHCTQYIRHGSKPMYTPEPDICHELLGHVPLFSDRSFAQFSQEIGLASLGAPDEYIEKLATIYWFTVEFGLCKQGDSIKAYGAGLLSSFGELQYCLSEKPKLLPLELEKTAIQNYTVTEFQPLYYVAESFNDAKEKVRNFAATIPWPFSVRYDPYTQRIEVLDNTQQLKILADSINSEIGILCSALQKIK
Briefly: Cell Based Phenylalanine Flux Assay.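 Note: Ten-point dose curve from 2-fold serial dilutions, run in duplicate at 0.5% DMSO final, tracer step used 20 µM sepiapterin and 800 µM labeled phenylalanine.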 Details: scale not given here. The conditions noted are these: A375 cells expressing R408W PAH; 24 hrs with compound, then 20 μM sepiapterin and 800 μM 13C9,15N-Phenylalanine for 4 hours; 13C-Tyrosine in media by LC-MS; average where tested multiple times.
Regarding `Cc1cccn2nc(C3c4nc[nH]c4CCN3C(=O)c3ocnc3C(F)(F)F)cc12` (stereo not drawn), the AC50 entry is given as “E, E”.

Staying with this test, now noted: A375 cells expressing R408W PAH; 24 hrs with compound, then 20 μM sepiapterin and 800 μM 13C9,15N-Phenylalanine for 4 hours; 13C-Tyrosine in media by LC-MS; average where tested multiple times; read-out: AC50.
As for `Cn1cncc1-c1nnc(C(=O)N2CCc3[nH]cnc3[C@@H]2c2cc3cccc(C(F)F)n3n2)o1` (single isomer, unassigned), the AC50 was above 5000 nM.

On to `Cc1cccc2cc([C@@H]3c4nc[nH]c4CCN3c3nnc(C4CCC4)o3)nn12` (single isomer, unassigned), for which the AC50 lay within 1000 to 5000 nM.

As for `Cn1nc(C(F)F)cc1C(=O)N1CCc2[nH]cnc2[C@@H]1c1cc2ccccn2n1` (single isomer, unassigned), the AC50 was above 5000 nM.

Still in this test, the particulars now being: A375 cells expressing human R408W PAH; 24 hrs compound incubation; 13C-Tyrosine by LC-MS; average where tested multiple times; read-out: AC50.
For the compound `O=C(c1ccnn1C1CC1)N1CCc2[nH]cnc2[C@H]1c1cc2c(F)cccn2n1` [Example 848, (S)-(1-cyclopropyl-1H-pyrazol-5-yl)(4-(4-fluoropyrazolo[1,5-a]pyridin-2-yl)-6,7-dihydro-1H-imidazo[4,5-c]pyridin-5(4H)-yl)methanone], the AC50 is below 500 nM.

Turning to `O=C(c1nnc(-c2ncccc2F)o1)N1CCc2[nH]cnc2[C@H]1c1cc2c(F)cccn2n1` [Example 791, (S)-(4-(4-fluoropyrazolo[1,5-a]pyridin-2-yl)-6,7-dihydro-1H-imidazo[4,5-c]pyridin-5(4H)-yl)(5-(3-fluoropyridin-2-yl)-1,3,4-oxadiazol-2-yl) methanone], the AC50 was below 500 nM.

As to `Cc1cccn2nc([C@H]3c4nc[nH]c4CCN3C(=O)c3nnc(C4CC4)o3)cc12` [Example 925, (R)-(5-cyclopropyl-1,3,4-oxadiazol-2-yl)(4-(4-methylpyrazolo[1,5-a]pyridin-2-yl)-6,7-dihydro-1H-imidazo[4,5-c]pyridin-5(4H)-yl)methanone], the AC50 was above 5000 nM.

Turning to `CC(C)(F)c1nnc(C(=O)N2CCc3[nH]cnc3[C@H]2c2cc3cccc(Cl)n3n2)o1` [Example 969, (S)-(4-(7-chloropyrazolo [1,5-a]pyridin-2-yl)-6,7-dihydro-1H-imidazo[4,5-c]pyridin-5(4H)-yl)(5-(2-fluoropropan-2-yl)-1,3,4-oxadiazol-2-yl)methanone], the AC50 is below 500 nM.

In the case of `COc1cccn2nc([C@H]3c4nc[nH]c4CCN3C(=O)c3nnc(-c4ccccn4)o3)cc12` [Example 778, (R)-(4-(4-methoxypyrazolo [1,5-a]pyridin-2-yl)-6,7-dihydro-1H-imidazo[4,5-c]pyridin-5(4H)-yl)(5-(pyridin-2-yl)-1,3,4-oxadiazol-2-yl)methanone], the AC50 is above 5000 nM.

As to `O=C(c1ccnn1C(F)F)N1CCc2[nH]cnc2[C@@H]1c1cc2cccc(Cl)n2n1` [Example 1065, (R)-(4-(7-chloropyrazolo [1,5-a]pyridin-2-yl)-6,7-dihydro-1H-imidazo[4,5-c]pyridin-5(4H)-yl)(1-(difluoromethyl)-1H-pyrazol-5-yl)methanone], the AC50 is 1000 to 5000 nM.

Regarding `Cn1nc(Cl)cc1C(=O)N1CCc2[nH]cnc2[C@@H]1c1cc2ccccn2n1` [Example 681, (R)-(3-chloro-1-methyl-1H-pyrazol-5-yl)(4-(pyrazolo [1,5-a]pyridin-2-yl)-6,7-dihydro-1H-imidazo[4,5-c]pyridin-5(4H)-yl)methanone], the AC50 was above 5000 nM.

On to `O=C(c1nnc(-c2ccccn2)o1)N1CCc2[nH]cnc2[C@H]1c1cc2c(C(F)(F)F)cccn2n1` [Example 826, (S)-(5-(pyridin-2-yl)-1,3,4-oxadiazol-2-yl)(4-(4-(trifluoromethyl)pyrazolo [1,5-a]pyridin-2-yl)-6,7-dihydro-1H-imidazo[4,5-c]pyridin-5(4H)-yl)methanone], for which the AC50 was below 500 nM.

In the case of `Cn1nc(C(F)F)nc1C(=O)N1CCc2[nH]cnc2[C@@H]1c1cc2ccc(C(F)(F)F)cn2n1` [Example 1127, (R)-(3-(difluoromethyl)-1-methyl-1H-1,2,4-triazol-5-yl)(4-(6-(trifluoromethyl)pyrazolo[1,5-a]pyridin-2-yl)-6,7-dihydro-1H-imidazo [4,5-c]pyridin-5(4H)-yl)methanone], the concentration at half-maximal activity (AC50) is 1000 to 5000 nM.

For `O=C(c1nnc(-c2cnccn2)o1)N1CCc2[nH]cnc2[C@H]1c1cc2c(F)cccn2n1` [Example 962, (S)-(4-(4-fluoropyrazolo[1,5-a]pyridin-2-yl)-6,7-dihydro-1H-imidazo[4,5-c]pyridin-5(4H)-yl)(5-(pyrazin-2-yl)-1,3,4-oxadiazol-2-yl)methanone], the AC50 was below 500 nM.

Take `COc1cccn2nc([C@H]3c4nc[nH]c4CCN3C(=O)c3nnc(-c4cnn(C)c4C)o3)cc12` [Example 1207, (R)-(5-(1,5-dimethyl-1H-pyrazol-4-yl)-1,3,4-oxadiazol-2-yl)(4-(4-methoxypyrazolo [1,5-a]pyridin-2-yl)-6,7-dihydro-1H-imidazo[4,5-c]pyridin-5(4H)-yl)methanone]: the AC50 is above 5000 nM.

Turning to `Cn1nc(C2CC2)nc1C(=O)N1CCc2[nH]cnc2[C@@H]1c1cc2c(Cl)cccn2n1` [Example 1073, (R)-(4-(4-chloropyrazolo [1,5-a]pyridin-2-yl)-6,7-dihydro-1H-imidazo[4,5-c]pyridin-5(4H)-yl)(3-cyclopropyl-1-methyl-1H-1,2,4-triazol-5-yl)methanone], the AC50 was in the range of 1000 to 5000 nM.

Staying with this test, now noted: A375 cells expressing human R408W PAH; 24 hrs with compound, then sepiapterin and 13C9,15N-Phenylalanine for 4 hours; 13C-Tyrosine by LC-MS; average where tested multiple times; read-out: AC50.
Regarding `Cc1cccn2nc([C@H]3c4nc[nH]c4CCN3C(=O)c3oc(-c4ccccn4)nc3C3CC3)cc12` [Example 2121, (R)-(4-cyclopropyl-2-(pyridin-2-yl)oxazol-5-yl)(4-(4-methylpyrazolo[1,5-a]pyridin-2-yl)-1,4,6,7-tetrahydro-5H-imidazo[4,5-c]pyridin-5-yl)methanone], the AC50 was 1000 to 5000 nM.

`Fc1cccc(F)c1-c1nnc(N2CCc3[nH]cnc3[C@@H]2c2cc3cccc(Cl)n3n2)o1` [Example 2088, (R)-2-(4-(7-chloropyrazolo [1,5-a]pyridin-2-yl)-1,4,6,7-tetrahydro-5H-imidazo [4,5-c]pyridin-5-yl)-5-(2,6-difluorophenyl)-1,3,4-oxadiazole]: the concentration at half-maximal activity (AC50) was above 5000 nM.

Regarding `CC(C)c1nnc(C(=O)N2CCc3[nH]cnc3[C@@H]2c2cc3cccc(Cl)n3n2)o1` [Example 1489, (R)-(4-(7-chloropyrazolo [1,5-a]pyridin-2-yl)-6,7-dihydro-1H-imidazo[4,5-c]pyridin-5(4H)-yl)(5-isopropyl-1,3,4-oxadiazol-2-yl)methanone], the AC50 fell in the range of 1000 to 5000 nM.

Consider `Cc1ccc2c(C(=O)N3CCc4[nH]cnc4[C@H]3c3cc4c(C(F)(F)F)cccn4n3)cnn2c1` [Example 1666, (S)-(6-methylpyrazolo [1,5-a]pyridin-3-yl)(4-(4-(trifluoromethyl)pyrazolo [1,5-a]pyridin-2-yl)-6,7-dihydro-1H-imidazo[4,5-c]pyridin-5(4H)-yl)methanone], for which the AC50 was in the range of 500 to 1000 nM.

Consider `CC(C)c1cccn2nc([C@@H]3c4nc[nH]c4CCN3c3ccc(C(F)(F)F)cn3)cc12` [Example 2148, (S)-4-(4-isopropylpyrazolo [1,5-a]pyridin-2-yl)-5-(5-(trifluoromethyl)pyridin-2-yl)-4,5,6,7-tetrahydro-1H-imidazo[4,5-c]pyridine], for which the AC50 is below 500 nM.

Consider `CCc1cccn2nc([C@H]3c4nc[nH]c4CCN3C(=O)c3nnc(C(C)(C)F)o3)cc12` [Example 1923, (R)-(4-(4-ethylpyrazolo [1,5-a]pyridin-2-yl)-1,4,6,7-tetrahydro-5H-imidazo [4,5-c]pyridin-5-yl)(5-(2-fluoropropan-2-yl)-1,3,4-oxadiazol-2-yl)methanone], for which the AC50 is above 5000 nM.

For the compound `Fc1ccc(-c2nnc(N3CCc4[nH]cnc4[C@@H]3c3cc4c(F)cccn4n3)o2)cc1` [Example 1952, (R)-2-(4-fluorophenyl)-5-(4-(4-fluoropyrazolo[1,5-a]pyridin-2-yl)-1,4,6,7-tetrahydro-5H-imidazo[4,5-c]pyridin-5-yl)-1,3,4-oxadiazole], the AC50 is above 5000 nM.

Regarding `CC(C)(F)c1nnc(C(=O)N2CCc3[nH]cnc3[C@H]2c2cc3cccc(C(F)F)n3n2)o1` [Example 1436, (S)-(4-(7-(difluoromethyl)pyrazolo[1,5-a]pyridin-2-yl)-6,7-dihydro-1H-imidazo[4,5-c]pyridin-5(4H)-yl)(5-(2-fluoropropan-2-yl)-1,3,4-oxadiazol-2-yl)methanone], the AC50 fell in the range of 500 to 1000 nM.

As to “(S)-(6-(methoxymethyl) pyrazolo[1,5-a]pyridin-3-yl)(4- (4-methylpyrazolo[1,5-a] pyridin-2-yl)-6,7-dihydro-1H- imidazo[4,5-c]pyridin- 5(4H)-yl)methanone [Example 1624]”, the half-maximal activity concentration (AC50) lay in the range of 500 to 1000 nM.

As to `Fc1cccn2nc([C@@H]3c4nc[nH]c4CCN3c3nnc(-c4ccncn4)o3)cc12` [Example 2178, (S)-2-(4-(4-fluoropyrazolo [1,5-a]pyridin-2-yl)-1,4,6,7-tetrahydro-5H-imidazo[4,5-c]pyridin-5-yl)-5-(pyrimidin-4-yl)-1,3,4-oxadiazole], the AC50 was in the range of 500 to 1000 nM.

Regarding `Cn1nccc1-c1nnc(C(=O)N2CCc3[nH]cnc3[C@H]2c2cc3cccc(F)n3n2)o1` [Example 1526, (S)-(4-(7-fluoropyrazolo[1,5-a]pyridin-2-yl)-6,7-dihydro-1H-imidazo[4,5-c]pyridin-5(4H)-yl)(5-(1-methyl-1H-pyrazol-5-yl)-1,3,4-oxadiazol-2-yl)methanone], the AC50 lay within 500 to 1000 nM.
